The values that follow come from patent US9776979B2, “EBI2 modulators” (Sanford-Burnham Medical Research Institute, priority 2013, dated 2017).

Some results are limits rather than exact numbers.

Chain of EBI2 (P32249 whole entry): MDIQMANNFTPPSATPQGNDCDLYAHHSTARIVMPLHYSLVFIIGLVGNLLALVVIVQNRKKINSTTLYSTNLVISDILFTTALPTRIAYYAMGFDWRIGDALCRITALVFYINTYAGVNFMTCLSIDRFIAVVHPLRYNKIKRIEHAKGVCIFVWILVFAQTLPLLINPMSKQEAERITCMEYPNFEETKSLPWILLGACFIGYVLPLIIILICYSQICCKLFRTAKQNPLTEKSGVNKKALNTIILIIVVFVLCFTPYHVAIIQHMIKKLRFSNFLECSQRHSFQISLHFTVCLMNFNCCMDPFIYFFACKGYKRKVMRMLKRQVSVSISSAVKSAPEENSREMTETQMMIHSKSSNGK

One test concerns the target EBI2 (Homo sapiens, UniProt P32249). Briefly: Cell-based luminescent assay (EBI2 modulation).
Settings: not given
The method in brief: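 Cells plated overnight at 37° C, then exposed to compound at 4-5 uM final with 80 nM 7a,25-OHC agonist for 60 min at 37° C. Luminescence read after 60 min detection at 25° C in the dark; values normalized to neutral and stimulator controls and plate-pattern corrected.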
Take `O=C(c1cc2cc(Cl)ccc2[nH]1)N1CCC(Nc2ccc(F)cc2F)CC1` [Compound C258, 4-[(2,4-difluorophenyl)amino]piperidyl 5-chloroindol-2-yl ketone]: the IC50 – broadly, the concentration needed to halve the response being measured – is < 0.1 µM.

Regarding `O=C(c1cc2cc(Cl)ccc2[nH]1)N1CCC(Nc2cc(F)cc(F)c2)CC1` [Compound C273, 4-[(3,5-difluorophenyl)amino]piperidyl 5-chloroindol-2-yl ketone], the IC50 was < 0.1 µM.

Still in this test, the particulars now being: cell-based luminescence; 7a,25-OHC final assay concentration 80 nM; 60 minutes incubation; read-out: IC50.
Consider “(2E)-1-{4-[(2-methylphenyl)methyl]piperazinyl}-3-phenylprop-2-en-1-one [Compound C394]”, for which the IC50 was in the range of 0.1 to 0.5 µM. Turning to `CCCCC(=O)N1CCN(C(=O)/C=C/c2ccc(Br)cc2)CC1` [Compound C98, (2E)-3-(4-bromophenyl)-1-(4-pentanoylpiperazinyl)prop-2-en-1-one], the IC50 was < 0.1 µM. On the same count and under the same terms, the same measure for `O=C(C#Cc1ccccc1C(F)(F)F)N1CCN(Cc2ccc(Cl)cc2)CC1` [Compound C469, 1-{4-[(4-chlorophenyl)methyl]piperazinyl}-3-[2-(trifluoromethyl)phenyl]prop-2-yn-1-one]: 0.1 to 0.5 µM. Take `CC(C)(C)c1ccc(S(=O)(=O)N2CCN(C(=O)/C=C/c3ccc(Cl)c(Cl)c3)CC2)cc1` [Compound C334, (2E)-3-(3,4-dichlorophenyl)-1-(4-{[4-(tert-butyl)phenyl]sulfonyl}piperazinyl)prop-2-en-1-one]: the IC50 is < 0.1 µM. As to `O=C(/C=C/c1ccccc1)N1CCN(Cc2cccc3ccccc23)CC1` [Compound C308, (2E)-1-[4-(naphthylmethyl)piperazinyl]-3-phenylprop-2-en-1-one], the IC50 is < 0.1 µM. As for `O=C(C#Cc1ccc2c(c1)OCO2)N1CCN(C(=O)c2ccc(Cl)cc2)CC1` [Compound C114, 3-(2H-benzo[3,4-d]1,3-dioxolen-5-yl)-1-{4-[(4-chlorophenyl)carbonyl]piperazinyl}prop-2-yn-1-one], the half-maximal inhibitory concentration (IC50) is < 0.1 µM. Still for that read-out and setting: next, `O=C(/C=C/c1ccc(Br)cc1)N1CCN(C(=O)c2ccc(-c3nnn[nH]3)cc2)CC1` [Compound C152, (2E)-3-(4-bromophenyl)-1-{4-[(4-(1H-1,2,3,4-tetraazol-5-yl)phenyl)carbonyl]piperazinyl}prop-2-en-1-one]: < 0.1 µM; `O=C(c1ccc2ncccc2c1)N1CCN(C(c2ccccc2)c2ccccc2)CC1` [Compound C110, 4-(diphenylmethyl)piperazinyl 6-quinolyl ketone]: < 0.1 µM. Turning to “3-(2,3-dichlorophenyl)-1-[4-(diphenylmethyl)piperazinyl]prop-2-yn-1-one [Compound C25]”, the IC50 was < 0.1 µM. Same read-out and setting: the same measure for `COc1ccc(C(=O)N2CCN(C(=O)c3cc4ccc(Cl)cc4[nH]3)CC2)cc1` [Compound C151, 6-chloroindol-2-yl 4-[(4-methoxyphenyl)carbonyl]piperazinyl ketone]: < 0.1 µM. With `O=C(C#Cc1cc(F)cc(F)c1)N1CCN(Cc2ccc(C(F)(F)F)cc2)CC1` [Compound C195, 3-(3,5-difluorophenyl)-1-(4-{[4-(trifluoromethyl)phenyl]methyl}piperazinyl)prop-2-yn-1-one], the IC50 lay within 0.5 to 5 µM. `O=C(NC1CCN(C(=O)c2cc3cc(Cl)ccc3[nH]2)CC1)c1ccc(Cl)cc1` [Compound C184, N-{1-[(5-chloroindol-2-yl)carbonyl](4-piperidyl)}(4-chlorophenyl)carboxamide]: the IC50 was in the range of 0.5 to 5 µM. Consider “3-(3,4-dichlorophenyl)-1-{4-[(4-chlorophenyl)carbonyl]piperazinyl}prop-2-yn-1-one [Compound C51]”, for which the IC50 was < 0.1 µM.

For the compound `O=C(/C=C/c1ccc(F)cc1)N1CCN(S(=O)(=O)CCc2ccccc2)CC1` [Compound E3, (2E)-3-(4-fluorophenyl)-1-{4-[(2-phenylethyl)sulfonyl]piperazinyl}prop-2-en-1-one], the IC50 is < 0.1 µM.

As for `Cc1cc(C)cc(CN2CCN(C(=O)/C=C/c3ccc(Br)cc3)CC2)c1` [Compound C109, (2E)-1-{4-[(3,5-dimethylphenyl)methyl]piperazinyl}-3-(4-bromophenyl)prop-2-en-1-one], the IC50 was < 0.1 µM. Still for that read-out and setting: next, `COc1ccc(C(=O)N2CCN(C(=O)C=Cc3ccc4c(c3)OCO4)CC2)cc1` [Compound C256, 3-(2H-benzo[3,4-d]1,3-dioxolen-5-yl)-1-{4-[(4-methoxyphenyl)carbonyl]piperazinyl}prop-2-en-1-one]: < 0.1 µM; `O=C(C=Cc1ccc2c(c1)OCO2)N1CCN(C(=O)c2ccc(F)cc2C(F)(F)F)CC1` [Compound C479, 3-(2H-benzo[3,4-d]1,3-dioxolan-5-yl)-1-(4-{[4-fluoro-2-(trifluoromethyl)phenyl]carbonyl}piperazinyl)prop-2-en-1-one]: 0.1 to 0.5 µM; “(2E)-1-{4-[(3-nitrophenyl)methyl]piperazinyl}-3-phenylprop-2-en-1-one [Compound C387]”: < 0.1 µM.

Turning to “3-(3,5-difluorophenyl)-1-(4-{[4-(trifluoromethyl)phenyl]carbonyl}piperazinyl)prop-2-yn-1-one [Compound C398]”, the IC50 was in the range of 0.1 to 0.5 µM.

Regarding `O=C(C=Cc1ccc2c(c1)OCO2)N1CCN(Cc2ccc(Br)cc2)CC1` [Compound C298, 3-(2H-benzo[3,4-d]1,3-dioxolan-5-yl)-1-{4-[(4-bromophenyl)methyl]piperazinyl}prop-2-en-1-one], the IC50 is 0.1 to 0.5 µM. Same read-out and setting: next, `NC(=O)c1ccc(C(=O)N2CCN(C(=O)c3cc4cc(Cl)ccc4[nH]3)CC2)cc1` [Compound C282, 4-({4-[(5-chloroindol-2-yl)carbonyl]piperazinyl}carbonyl)benzamide]: 0.1 to 0.5 µM; `Cc1ccc(C#CC(=O)N2CCN(Cc3ccc(Cl)cc3)CC2)cc1` [Compound C245, 1-{4-[(4-chlorophenyl)methyl]piperazinyl}-3-(4-methylphenyl)prop-2-yn-1-one]: < 0.1 µM. The same measure, in the same setting: the same measure for `O=C(/C=C/c1ccccc1F)N1CCN(S(=O)(=O)c2ccc(Br)cc2)CC1` [Compound C455, (2E)-1-{4-[(4-bromophenyl)sulfonyl]piperazinyl}-3-(2-fluorophenyl)prop-2-en-1-one]: 0.1 to 0.5 µM; for “(2E)-3-(4-bromophenyl)-1-[4-({[(4-fluorophenyl)methyl]amino}methyl)piperidyl]prop-2-en-1-one [Compound C47]”: < 0.1 µM; for `COC(=O)c1cccc(CN2CCN(C(=O)c3cc4cc(Cl)ccc4[nH]3)CC2)c1` [Compound C358, methyl 3-({4-[(5-chloroindol-2-yl)carbonyl]piperazinyl}methyl)benzoate]: < 0.1 µM. Same read-out and setting: next, `CC(C)CN1CCN(C(=O)/C=C/c2ccc(Br)cc2)CC1` [Compound C52, (2E)-3-(4-bromophenyl)-1-[4-(methylpropyl)piperazinyl]prop-2-en-1-one]: < 0.1 µM; `O=C(c1ccc(C(F)(F)F)cc1)N1CCN(C(=O)c2cc3ccc(Cl)cc3[nH]2)CC1` [Compound C391, 6-chloroindol-2-yl 4-{[4-(trifluoromethyl)phenyl]carbonyl}piperazinyl ketone]: < 0.1 µM; `O=C(c1ccc(Br)cc1)N1CCN(Cc2ccc(F)cc2C(F)(F)F)CC1` [Compound C164, 4-bromophenyl 4-{[4-fluoro-2-(trifluoromethyl)phenyl]methyl}piperazinyl ketone]: 0.5 to 5 µM. Regarding “(2E)-1-{4-[(4-bromophenyl)sulfonyl]piperazinyl}-3-(4-chloro-2-fluorophenyl)prop-2-en-1-one [Compound C388]”, the IC50 was < 0.1 µM. Consider `COc1ccc(CN2CCN(C(=O)C#Cc3ccc(C)cc3)CC2)cc1` [Compound C236, 1-{4-[(4-methoxyphenyl)methyl]piperazinyl}-3-(4-methylphenyl)prop-2-yn-1-one], for which the IC50 is < 0.1 µM. Turning to `Cc1nc2ccc(C(=O)N3CCN(C(c4ccccc4)c4ccccc4)CC3)cc2[nH]1` [Compound C465, 4-(diphenylmethyl)piperazinyl 2-methylbenzimidazol-5-yl ketone], the IC50 fell in the range of 0.1 to 0.5 µM. For `O=C(/C=C/c1ccc(F)cc1)N1CCCN(S(=O)(=O)/C=C/c2ccccc2)CC1` [Compound C198, (2E)-1-{4-[((1E)-2-phenylvinyl)sulfonyl](1,4-diazaperhydroepinyl)}-3-(4-fluorophenyl)prop-2-en-1-one], the IC50 is 0.5 to 5 µM. Same read-out and setting: next, `O=C(c1ccc2nc(C(F)(F)F)[nH]c2c1)N1CCN(C(c2ccccc2)c2ccccc2)CC1` [Compound C299, 4-(diphenylmethyl)piperazinyl 2-(trifluoromethyl)benzimidazol-5-yl ketone]: 0.1 to 0.5 µM; “(2E)-3-(4-bromophenyl)-1-[4-({[(4-chlorophenyl)methyl]amino}methyl)piperidyl]prop-2-en-1-one [Compound C74]”: < 0.1 µM; `O=C(C#Cc1ccc2c(c1)OCO2)C1CCN(C(=O)c2ccc(F)cc2)CC1` [Compound C112, 3-(2H-benzo[3,4-d]1,3-dioxolen-5-yl)-1-{1-[(4-fluorophenyl)carbonyl](4-piperidyl)}prop-2-yn-1-one]: < 0.1 µM.

Regarding `O=C(/C=C/c1ccc(Br)cc1)N1CCN(Cc2ccccc2F)CC1` [Compound C269, (2E)-3-(4-bromophenyl)-1-{4-[(2-fluorophenyl)methyl]piperazinyl}prop-2-en-1-one], the IC50 was < 0.1 µM. On the same count and under the same terms, the same measure for `O=C(C#Cc1cccc(Cl)c1)N1CCN(Cc2ccc(C(F)(F)F)cc2)CC1` [Compound C353, 3-(3-chlorophenyl)-1-(4-{[4-(trifluoromethyl)phenyl]methyl}piperazinyl)prop-2-yn-1-one]: < 0.1 µM; for `O=C(/C=C/c1ccc(F)cc1)N1CCN(S(=O)(=O)c2ccccc2Br)CC1` [Compound C100, (2E)-1-{4-[(2-bromophenyl)sulfonyl]piperazinyl}-3-(4-fluorophenyl)prop-2-en-1-one]: < 0.1 µM; for `O=C(c1cc2ccc(F)cc2[nH]1)N1CCN(C(c2ccccc2)c2ccccc2)CC1` [Compound C215, 4-(diphenylmethyl)piperazinyl 6-fluoroindol-2-yl ketone]: < 0.1 µM.
